One test addresses T1, α2 GlyR (Homo sapiens, UniProt P23416).
T1 construct: expressed in transfected cells; host or cells: CHO cells
T1 sequence (P23416 28-452 isoform P23416-2 limits assumed): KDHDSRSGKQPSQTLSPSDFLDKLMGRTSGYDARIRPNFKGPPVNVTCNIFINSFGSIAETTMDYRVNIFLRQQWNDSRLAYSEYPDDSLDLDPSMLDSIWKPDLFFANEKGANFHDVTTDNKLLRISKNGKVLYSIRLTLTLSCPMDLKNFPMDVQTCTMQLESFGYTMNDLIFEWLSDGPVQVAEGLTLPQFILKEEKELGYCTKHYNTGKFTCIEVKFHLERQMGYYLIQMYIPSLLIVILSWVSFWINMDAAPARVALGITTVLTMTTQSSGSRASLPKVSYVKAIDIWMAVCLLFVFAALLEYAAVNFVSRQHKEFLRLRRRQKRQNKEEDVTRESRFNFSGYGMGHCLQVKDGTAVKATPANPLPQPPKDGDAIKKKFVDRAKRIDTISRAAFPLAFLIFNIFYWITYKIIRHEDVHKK
The test can be described thus: Whole-cell patch-clamp of glycine-induced currents, α2 GlyR expressed in CHO cells. Type of test: cell-based. Particulars: for glycine-evoked current, % from the control: NFA 10 μM. Here is the method: The experiments were carried out on cultured Chinese hamster ovary (CHO) cells obtained from the American Type Tissue Culture Collection (ATCC, Molsheim, France) that were maintained in culture conditions as previously described (Mukhtarov et al., [2013]; Maleeva et al., [2015]).
One day before transfection, cells were plated on the cover slips (12 mm in diameter) and placed inside 35-mm cell culture dishes with 2 ml of medium. Transfection was performed using the Lipofectamine 3000 protocol (Life Technology, USA). To facilitate identification of transfected cells a green fluorescent protein (GFP) was added to the transfection mixture. For expression of functional heteromeric receptors, cells were simultaneously transfected with cDNAs of α and β subunits in the ratio 1:10. Three hours after the initial exposure of cells to the cDNAs the culture medium was replaced with that containing strychnine (1 μM), which prevents spontaneous activation of GlyRs. Electrophysiological recordings were performed in the fluorescent cells 24–72 h after transfection.
Whole-cell and outside-out recordings were performed at room temperature (20–25°C) using an EPC-9 amplifier (HEKA Elektronik, Germany). Cells were continuously superfused with external solution containing (mM): NaCl 140, CaCl2 2, KCl 2.8, MgCl2 4, HEPES 20, glucose 10; pH 7.4; 320–330 mOsm. Intracellular solution used for filling recording patch pipettes contained (mM): CsCl 140, CaCl2 6, MgCl2 2, MgATP 2, NaGTP 0.4, HEPES/CsOH 10, BAPTA (tetrapotassium salt) 2; pH 7.3; 290 mOsm. Two different protocols of solutions application were used in this study. […] A “ramp protocol” implies the gradual change of Vhold alternately from −80 to +80 mV and from +80 to −80 mV during 1 s, Vhold was fixed at −80 or +80 mV at the beginning and at the end of the ramp for 500 ms (Figure 2B).
Recording pipettes were pulled from borosilicate glass capillaries (Harvard Apparatus Ltd, USA) and had resistances of 5–10 MOhm. For the rapid replacement of the solutions, the fast application system was used. Three parallel rectangular tubes (100 × 100 μm) were positioned 40–50 μm above the recorded cell. The movement of the tubes was controlled by a computer-driven fast exchange system (SF 77A Perfusion Fast-Step, Warner, USA) allowing a 10–90% solution exchange in 3–5 ms, as measured by open electrode controls (1/10 external solution/water). Cells with low input resistance (<150 MOhm) and a rapid run-down (>30% with repetitive application) were excluded from analysis.
Electrophysiological recordings were performed using PatchMaster (HEKA Electronic, Germany) software.
The fractional electrical distance from the external side of the membrane (δ) at which bound NFA blocked the current was calculated using the Woodhull equation: IC50(V)=IC50(0) exp (−δFV/RT), where IC50(V) is IC50 at the given membrane potential, IC50(0) – at 0 mV, V – membrane potential and F, R, T have their usual meanings. δ was determined from a plot of IC50 values against membrane potential.
For orientation: Patch clamp records ionic current or voltage across a cell membrane.

In test [1] the test system is ClC-K kidney Cl− channels. Set-up: method as in Zifarelli et al., 2010. Particulars: biphasic: activates at low concentrations; ref Zifarelli et al., 2010; cited from earlier work.

Structures are written as SMILES. Read-outs that look alike come from different tables or passages of the source. A value given as a limit tells only on which side of the number the result lay.

As a reminder, the IC50 is the concentration that gives 50% inhibition. As a reminder, the inhibition is the drop in the measured response relative to a control, in per cent. Turning to `O=C(O)c1cccnc1Nc1cccc(C(F)(F)F)c1` [NFA, Niflumic acid], the IC50 on α2 GlyR (+30 mV, glycine 30 μM, representative, read-out: NFA IC50 (representative IC50 curve)) is 17 µM; on α2 GlyR (+30 mV, glycine 100 μM, representative, read-out: NFA IC50 (representative IC50 curve)) it was 12 µM; at α2 GlyR (+80 mV, glycine 30 μM, ramp protocol, mean ± SEM, read-out: IC50 of NFA), 9 ± 2 µM; at α2 GlyR (+80 mV, glycine 30 μM, representative, read-out: NFA IC50 (representative IC50 curve)) it was 12 µM; on α2 GlyR (+80 mV, glycine 100 μM, ramp protocol, mean ± SEM, read-out: IC50 of NFA), 9 ± 2 µM; on α2 GlyR (+80 mV, glycine 100 μM, representative, read-out: NFA IC50 (representative IC50 curve)) it was 7 µM. Further, the IC50 on α2 GlyR (read-out: IC50 of NFA) worked out at 133 ± 20 µM; at α2 GlyR (−30 mV, glycine 30 μM, representative, read-out: NFA IC50 (representative IC50 curve)), 75 µM; on α2 GlyR (−30 mV, glycine 100 μM, representative, read-out: NFA IC50 (representative IC50 curve)), 39 µM; on α2 GlyR (−80 mV, glycine 30 μM, ramp protocol, mean ± SEM, read-out: IC50 of NFA) it was 166 ± 28 µM; at α2 GlyR (−80 mV, glycine 30 μM, representative, read-out: NFA IC50 (representative IC50 curve)), 155 µM; at α2 GlyR (−80 mV, glycine 100 μM, representative, read-out: NFA IC50 (representative IC50 curve)), 100 µM. The inhibition at 10 µM against α2 GlyR (CHO) was about 50%. Besides, the “glycine-evoked current, % from the control” value on α2 GlyR (MP +80 mV) turned out to be 43 ± 5%; at α2 GlyR (MP −80 mV), 89 ± 4%. The “Hill coefficient (nH) of NFA interaction” value at α2 GlyR (membrane potential 30 mV, glycine 30 μM) is given as 1.1 ± 0.14; on α2 GlyR (membrane potential 50 mV, glycine 30 μM), 1 ± 0.14; at α2 GlyR (membrane potential 70 mV, glycine 30 μM), 1 ± 0.13; at α2 GlyR (membrane potential 80 mV, glycine 30 μM), 0.97 ± 0.09; at α2 GlyR (membrane potential −50 mV, glycine 30 μM), 1.14 ± 0.12; on α2 GlyR (membrane potential −70 mV, glycine 30 μM), 1.04 ± 0.08. Further, the “Hill coefficient (nH) of NFA interaction” value on α2 GlyR (membrane potential −80 mV, glycine 30 μM) amounted to 1.05 ± 0.06. Besides, the “Hill coefficient (nH) of NFA inhibitory action” value on α2 GlyR (overall statement in discussion) is about 1. The “concentrations at which NFA blocks the channels” value in test [1] is reported as over 1 mM.

The values are drawn from publication PMC5432571 (Frontiers in Molecular Neuroscience, 2017).
